The structures appear in SMILES notation. Where a name gives a salt, the structure may show the parent alone.

In the assay the target is T1, human β-Secretase (Homo sapiens, UniProt P56817).
T1 construct: The soluble part of the human β-Secretase (AA 1-AA 460) was cloned; made in house
T1 sequence (P56817 22-460): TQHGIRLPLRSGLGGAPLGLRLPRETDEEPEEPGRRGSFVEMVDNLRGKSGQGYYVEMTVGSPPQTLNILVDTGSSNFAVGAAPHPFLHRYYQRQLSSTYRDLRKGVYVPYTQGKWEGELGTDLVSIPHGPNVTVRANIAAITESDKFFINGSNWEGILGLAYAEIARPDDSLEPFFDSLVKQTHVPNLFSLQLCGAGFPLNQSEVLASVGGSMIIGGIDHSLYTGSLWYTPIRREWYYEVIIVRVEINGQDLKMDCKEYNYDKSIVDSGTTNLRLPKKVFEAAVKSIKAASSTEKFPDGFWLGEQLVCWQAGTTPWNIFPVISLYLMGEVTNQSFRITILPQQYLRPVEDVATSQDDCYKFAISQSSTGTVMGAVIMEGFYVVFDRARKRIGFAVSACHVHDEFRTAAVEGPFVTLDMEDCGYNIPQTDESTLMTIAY
Nature of the assay: TR-FRET assay. In kind it is biochemical. (In general: TR-FRET usually uses a lanthanide donor and a delayed reading to cut background.)
Turning to `COc1ccc(C2(c3ccc(O)c(-c4cccnc4)c3)N=C(N)c3ccccc32)cc1` (stereo not drawn) [Example 7, 4-[3-Amino-1-(4-methoxy-phenyl)-1H-isoindol-1-yl]-2-pyridin-3-yl-phenol trifluoroacetate], the IC50 (as a rule, the concentration needed to halve the response being measured) is 86 nM.
`CS(=O)(=O)Oc1ccc(C2(c3cccc(-c4cccnc4)c3)N=C(N)c3ccccc32)cc1` (stereo not drawn) [Example 35, Methanesulfonic acid 4-[3-amino-1-(3-pyridin-3-yl-phenyl)-1H-isoindol-1-yl]-phenyl ester trifluoroacatete] yielded an IC50 of 950 nM.
In the case of `COc1cncc(-c2cccc(C3(c4ccc5c(c4)OCCO5)N=C(N)c4ccccc43)c2)c1` (stereo not drawn) [Example 16, 3-(2,3-Dihydrobenzo[b][1,4]dioxin-6-yl)-3-(3-(5-methoxypyridin-3-yl)phenyl)-3H-isoindol-1-amine trifluoroacetate], the IC50 is 425 nM.
For `NC1=NC(c2ccncc2)(c2ccc(F)c(-c3cncnc3)c2)c2ccccc21` (stereo not drawn) [Example 68, 1-(4-Fluoro-3-pyrimidin-5-ylphenyl)-1-pyridin-4-yl-1H-isoindol-3-amine 0.5 acetate], the IC50 was found to be 81 nM.
With `COc1ccc(C2(c3cccc(-c4cccc(OC)c4)c3)N=C(N)c3ccccc32)cc1` (stereo not drawn) [Example 2, 3-(3′-Methoxy-biphenyl-3-yl)-3-(4-methoxy-phenyl)-3H-isoindol-1-ylamine trifluoroacetate], the IC50 turned out to be 110 nM.
Consider `COc1cccc(-c2cccc(C3(c4ccc(OC)c(C)c4)N=C(N)c4ccccc43)c2)c1` (stereo not drawn) [Example 20, 3-(3′-Methoxy-biphenyl-3-yl)-3-(4-methoxy-3-methyl-phenyl)-3H-isoindol-1-ylamine trifluoroacetate], for which the IC50 amounted to 101 nM.
As for `CC1(c2cccc(-c3cccnc3F)c2)N=C(N)c2ccccc21` (stereo not drawn) [Example 96, 1-[3-(2-Fluoropyridin-3-yl)phenyl]-1-methyl-1H-isoindol-3-amine acetate], the half-maximal inhibitory concentration (IC50) turned out to be 2200 nM.
`NC1=NC(c2ccncc2)(c2cccc(-c3cccnc3)c2)c2ccccc21` (stereo not drawn) [Example 44, 3-Pyridin-4-yl-3-(3-pyridin-3-yl-phenyl)-3H-isoindol-1-ylamine trifluoroacetate] gave an IC50 of 213 nM.
As to `NC1=NC(c2ccncc2)(c2ccc(F)c(-c3cncc(F)c3)c2)c2ccccc21` (stereo not drawn) [Example 69, 1-[4-Fluoro-3-(5-fluoropyridin-3-yl)phenyl]-1-pyridin-4-yl-1H-isoindol-3-amine 0.75 acetate], inhibition was half-maximal at 99 nM (IC50).
In the case of `CC(C)c1cc(C2(c3cccc(-c4cccnc4F)c3)N=C(N)c3ccccc32)ccn1` (stereo not drawn) [Example 115, 1-[3-(2-Fluoropyridin-3-yl)phenyl]-1-(2-isopropylpyridin-4-yl)-1H-isoindol-3-amine] it was 210 nM.
Regarding `COc1cc(C2(c3cccc(-c4cccnc4F)c3)N=C(N)c3ccccc32)ccn1` (stereo not drawn) [Example 119, 1-[3-(2-Fluoropyridin-3-yl)phenyl]-1-(2-methoxypyridin-4-yl)-1H-isoindol-3-amine], the IC50 worked out at 110 nM.
With `COc1ccc(F)c(-c2cccc(C3(c4ccncc4)N=C(N)c4ccccc43)c2)c1` (stereo not drawn) [Example 103, 1-(2′-Fluoro-5′-methoxybiphenyl-3-yl)-1-pyridin-4-yl-1H-isoindol-3-amine], the IC50 came to 110 nM.
On to `COc1cccc(-c2cccc(C3(c4ccc5c(c4)OCO5)N=C(N)c4ccccc43)c2)c1` (stereo not drawn) [Example 33, 3-Benzo[1,3]dioxol-5-yl-3-(3′-methoxy-biphenyl-3-yl)-3H-isoindol-1-ylamine trifluoroacetate], for which the IC50 stood at 1330 nM.
Molecule `COc1cccc(-c2cccc(C3(c4ccc(OS(C)(=O)=O)cc4)N=C(N)c4ccccc43)c2)c1` (stereo not drawn) [Example 40, Methanesulfonic acid 4-[3-amino-1-(3′-methoxy-biphenyl-3-yl)-1H-isoindol-1-yl]-phenyl ester trifluoroaceate] had a 50% inhibitory concentration (IC50) of 570 nM.
`NC1=NC(c2ccc(F)c(-c3cncnc3)c2)(c2ccncc2F)c2ccccc21` (stereo not drawn) [Example 74, 1-(3-Fluoropyridin-4-yl)-1-(4-fluoro-3-pyrimidin-5-ylphenyl)-1H-isoindol-3-amine 1.25 acetate] returned an IC50 of 150 nM.
In the case of `Cc1ccc(-c2cccc(C3(c4ccncc4)N=C(N)c4ccccc43)c2)o1` (stereo not drawn) [Example 63, 1-[3-(5-Methyl-2-furyl)phenyl]-1-pyridin-4-yl-1H-isoindol-3-amine acetate] it was 1100 nM; in that of `N#Cc1ccc(C2(c3cccc(-c4cccnc4F)c3)N=C(N)c3ccccc32)cc1` (stereo not drawn) [Example 65, 4-{3-Amino-1-[3-(2-fluoropyridin-3-yl)phenyl]-1H-isoindol-1-yl}benzonitrile], 400 nM.
In the case of `COc1cc(OS(C)(=O)=O)cc(-c2cccc(C3(c4ccc(OS(C)(=O)=O)cc4)N=C(N)c4ccccc43)c2)c1` (stereo not drawn) [Example 41, Methanesulfonic acid 4-[3-amino-1-(5′-methane-sulfonyloxy-3′-methoxy-biphenyl-3-yl)-1H-isoindol-1-yl]-phenyl ester trifluoroacetate] it was 575 nM.
In turn, `COc1ccc(C2(c3cccc(Br)c3)N=C(N)c3ccccc32)cc1C` (stereo not drawn) [Example 19, 3-(3-Bromo-phenyl)-3-(4-methoxy-3-methyl-phenyl)-3H-isoindol-1-ylamine trifluoroacetate] returned an IC50 of 1360 nM.
Molecule `COc1ccc(C2(c3cccc(-c4cccnc4)c3)N=C(N)c3ccc(F)cc32)cc1` (stereo not drawn) [Example 79, 6-Fluoro-1-(4-methoxyphenyl)-1-(3-pyridin-3-ylphenyl)-1H-isoindol-3-amine] gave a 50% inhibitory concentration (IC50) of 54 nM.
In the case of `COc1ccc(F)c(-c2cccc(C3(c4ccncc4F)N=C(N)c4ccccc43)c2)c1` (stereo not drawn) [Example 99, 1-(2′-Fluoro-5′-methoxybiphenyl-3-yl)-1-(3-fluoropyridin-4-yl)-1H-isoindol-3-amine] it was 220 nM.
`NC1=NC(c2ccncc2)(c2cccc(-c3cccnc3F)c2)c2cc(F)ccc21` (stereo not drawn) [Example 86, 6-Fluoro-1-[3-(2-fluoropyridin-3-yl)phenyl]-1-pyridin-4-yl-1H-isoindol-3-amine] came in with an IC50 of 47 nM.
In the case of `COc1ccc(C#N)c(-c2cccc(C3(C)N=C(N)c4ccccc43)c2)c1` (stereo not drawn) [Example 93, 3′-(3-Amino-1-methyl-1H-isoindol-1-yl)-5-methoxybiphenyl-2-carbonitrile acetate] it was 4350 nM.
`COc1ncc(C2(c3cccc(-c4cncnc4)c3)N=C(N)c3ccccc32)cn1` (stereo not drawn) [Example 108, 1-(2-Methoxypyrimidin-5-yl)-1-(3-pyrimidin-5-ylphenyl)-1H-isoindol-3-amine] showed an IC50 of 970 nM.
Under `NC1=NC(c2ccc(F)c(-c3cccnc3F)c2)(c2ccncc2F)c2ccccc21` (stereo not drawn) [Example 76, 1-[4-Fluoro-3-(2-fluoropyridin-3-yl)phenyl]-1-(3-fluoropyridin-4-yl)-1H-isoindol-3-amine 1.5 acetate] stands 100 nM; under `CC(C)Cn1cc(-c2cccc(C3(c4ccncc4)N=C(N)c4ccccc43)c2)cn1` (stereo not drawn) [Example 62, 1-[3-(1-Isobutyl-1H-pyrazol-4-yl)phenyl]-1-pyridin-4-yl-1H-isoindol-3-amine 0.25], above 10000 nM.
Consider `COc1cc(OS(C)(=O)=O)cc(-c2cccc(C3(c4ccc(OC)c(C)c4)N=C(N)c4ccccc43)c2)c1` (stereo not drawn) [Example 25, Methanesulfonic acid 3′-[3-amino-1-(4-methoxy-3-methyl-phenyl)-1H-isoindol-1-yl]-5-methoxy-biphenyl-3-yl ester trifluoroacetate], for which the IC50 amounted to 86 nM.
In the case of `NC1=NC(c2ccncc2)(c2cccc(-c3cncnc3)c2)c2cc(F)ccc21` (stereo not drawn) [Example 84, 6-Fluoro-1-pyridin-4-yl-1-(3-pyrimidin-5-ylphenyl)-1H-isoindol-3-amine] it was 94 nM; in that of `COc1ccc(C2(c3ccc(F)c(-c4cccnc4F)c3)N=C(N)c3ccccc32)cc1C` (stereo not drawn) [Example 128, 1-[4-Fluoro-3-(2-fluoropyridin-3-yl)phenyl]-1-(4-methoxy-3-methylphenyl)-1H-isoindol-3-amine], 40 nM.
In the case of `NC1=NC(c2cccc(-c3cncc(F)c3)c2)(c2ccncc2F)c2ccccc21` (stereo not drawn) [Example 71, 1-(3-Fluoropyridin-4-yl)-1-[3-(5-fluoropyridin-3-yl)phenyl]-1H-isoindol-3-amine 0.5 acetate] it was 190 nM.
Turning to `NC1=NC(c2ccncc2)(c2cccc(-c3cccnc3)c2)c2cc(F)ccc21` (stereo not drawn) [Example 83, 6-Fluoro-1-pyridin-4-yl-1-(3-pyridin-3-ylphenyl)-1H-isoindol-3-amine], the IC50 was found to be 75 nM.
`NC1=NC(c2cccc(-c3cncnc3)c2)(c2ccc3c(c2)OCO3)c2ccccc21` (stereo not drawn) [Example 30, 3-Benzo[1,3]dioxol-5-yl-3-(3-pyrimidin-5-ylphenyl)-3H-isoindol-1-ylamine trifluoroacetate] displayed an IC50 of 942 nM.
Under `NC1=NC(c2ccncc2)(c2cccc(-c3ccsc3C=O)c2)c2ccccc21` (stereo not drawn) [Example 61, 3-[3-(3-Amino-1-pyridin-4-yl-1H-isoindol-1-yl)phenyl]thiophene-2-carbaldehyde] stands 2000 nM.

For the origin of these results see patent publication US7855213B2 (AstraZeneca AB, priority 2006, dated 2010).
